# Experimental data: US7138361B2, “Herbicidal heterocycles” (E. I. du Pont de Nemours and Company, priority 2000, dated 2006)
# Tests used:
# Type in all cases: in vivo
# [1] = tested on: Surinam grass (Brachiaria decumbens); assay: Test B preemergence
# Procedure, shortened: (§1)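 Greenhouse test: chemicals are formulated in a surfactant-containing non-phytotoxic solvent and applied either preemergence to planted seeds or postemergence to plants 2 to 18 cm tall. Response is rated visually versus controls after 13 to 15 days, 0 meaning no effect and 100 complete control.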
# [2] = tested on: cocklebur (Xanthium strumarium); assay: Test B preemergence
# Procedure, shortened: as §1
# corn (Zea mays) [3] = assay: Test B preemergence
# Procedure, shortened: as §1
# [4] = tested on: crabgrass (Digitaria sanguinalis); assay: Test B preemergence
# Procedure, shortened: as §1
# [5] = tested on: giant foxtail (Setaria faberii); assay: Test B preemergence
# Procedure, shortened: as §1
# [6] = tested on: lambsquarters (Chenopodium album); assay: Test B preemergence
# Procedure, shortened: as §1
# [7] = tested on: morning glory (Ipomoea hederacea); assay: Test B preemergence
# Procedure, shortened: as §1
# [8] = tested on: pigweed (Amaranthus retroflexus); assay: Test B preemergence
# Procedure, shortened: as §1
# rice (Oryza saliva) = assay: Test B preemergence
# Procedure, shortened: as §1
# [9] = tested on: velvetleaf (Abutilon theophrasti); assay: Test B preemergence
# Procedure, shortened: as §1
# [10] = tested on: bermudagrass (Cynodon dactylon); assay: Test C postemergence
# Procedure, shortened: (§2)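 Formulation: non-phytotoxic solvent mix incl. surfactant. Pre: applied right after planting. Post: 1–4-leaf seedlings. Read: visual 0–100, day 12–14, greenhouse.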
# corn (Zea mays) [11] = assay: Test C postemergence
# Procedure, shortened: as §2
# [12] = tested on: crabgrass (Digitaria sanguinalis); assay: Test C postemergence
# Procedure, shortened: as §2
# [13] = tested on: giant foxtail (Setaria faberii); assay: Test C postemergence; settings: scale 0 to 100 (0 no effect, 100 complete control)
# Procedure, shortened: as §2
# [14] = tested on: goosegrass (Eleusine indica); assay: Test C postemergence
# Procedure, shortened: as §2
# kochia (Kochia scoparia) = assay: Test C postemergence
# Procedure, shortened: as §2
# [15] = tested on: lambsquarters (Chenopodium album); assay: Test C postemergence
# Procedure, shortened: as §2
# [16] = tested on: morningglory (Ipomoea hederacea); assay: Test C postemergence
# Procedure, shortened: as §2
# [17] = tested on: pigweed (Amaranthus retroflexus); assay: Test C postemergence
# Procedure, shortened: as §2
# soybean (Glycine max) = assay: Test C postemergence
# Procedure, shortened: as §2
# [18] = tested on: velvetleaf (Abutilon theophrasti); assay: Test C postemergence
# Procedure, shortened: as §2
# [19] = tested on: woolly cupgrass (Eriochloa villosa); assay: Test C postemergence
# Procedure, shortened: as §2
# [20] = tested on: yellow nutsedge (Cyperus esculentus); assay: Test C postemergence
# Procedure, shortened: as §2
# [21] = Preemergence, Rate 500 g/ha, scale 0 to 100, 0 no effect, 100 complete control
# [22] = preemergence, Rate 125 g/ha, scale of 0 to 100 where 0 is no effect and 100 is complete control, 13 to 15 days
# [23] = Rate 250 g/ha, scale 0 to 100 (0 no effect, 100 complete control)
# [24] = Rate 500 g/ha, scale 0 to 100 (0 no effect, 100 complete control)
smiles,measurement,setting,value
COc1cc(N2CCC(n3ccc(C(C)C)n3)C2=O)ccc1Br (centres unmarked) [Compound 140],"Plant response rating, Surinam grass",[1]; [21],100
same,"Plant response rating, Surinam grass",[1]; [22],100
same,"Plant response rating, Cocklebur",[2]; [21],60
same,"Plant response rating, Cocklebur",[2]; [22],20
same,"Plant response rating, Corn",corn (Zea mays) [3]; [21],20
same,"Plant response rating, Corn",corn (Zea mays) [3]; [22],0
same,"Plant response rating, Crabgrass",[4]; [21],100
same,"Plant response rating, Crabgrass",[4]; [22],100
same,"Plant response rating, Foxtail, Giant",[5]; [21],100
same,"Plant response rating, Foxtail, Giant",[5]; [22],100
same,"Plant response rating, Lambsquarters",[6]; [21],100
same,"Plant response rating, Lambsquarters",[6]; [22],100
same,"Plant response rating, Morningglory",[7]; [21],100
same,"Plant response rating, Morningglory",[7]; [22],0
same,"Plant response rating, Pigweed",[8]; [21],100
same,"Plant response rating, Pigweed",[8]; [22],100
same,"Plant response rating, Rice",rice (Oryza saliva); [21],40
same,"Plant response rating, Rice",rice (Oryza saliva); [22],20
same,"Plant response rating, Velvetleaf",[9]; [21],80
same,"Plant response rating, Velvetleaf",[9]; [22],60
same,"Plant response rating, Bermudagrass","[10]; Rate 62 g/ha, scale 0 to 100",30
same,"Plant response rating, Bermudagrass","[10]; Rate 125 g/ha, scale 0 to 100, 0 no effect, 100 complete control",40
same,"Plant response rating, Bermudagrass",[10]; [23],70
same,"Plant response rating, Bermudagrass",[10]; [24],90
same,"Plant response rating, Corn","corn (Zea mays) [11]; Rate 62 g/ha, scale 0 to 100",0
same,"Plant response rating, Corn",corn (Zea mays) [11]; [23],0
same,"Plant response rating, Corn",corn (Zea mays) [11]; [24],0
same,"Plant response rating, Corn",corn (Zea mays) [11]; scale 0 to 100,0
same,"Plant response rating, Crabgrass","[12]; Rate 62 g/ha, scale 0 to 100",40
same,"Plant response rating, Crabgrass",[12]; [23],70
same,"Plant response rating, Crabgrass",[12]; [24],70
same,"Plant response rating, Foxtail, Giant",[13]; Rate 250 g/ha,90
same,"Plant response rating, Foxtail, Giant",[13]; Rate 500 g/ha,90
same,"Plant response rating, Goosegrass","[14]; Rate 62 g/ha, scale 0 to 100",20
same,"Plant response rating, Goosegrass",[14]; [23],80
same,"Plant response rating, Kochia","kochia (Kochia scoparia); Rate 62 g/ha, scale 0 to 100",40
same,"Plant response rating, Kochia",kochia (Kochia scoparia); [23],90
same,"Plant response rating, Kochia",kochia (Kochia scoparia); [24],90
same,"Plant response rating, Lambsquarters","[15]; Rate 62 g/ha, scale 0 to 100",80
same,"Plant response rating, Lambsquarters",[15]; [23],90
same,"Plant response rating, Lambsquarters",[15]; [24],100
same,"Plant response rating, Morningglory","[16]; Rate 62 g/ha, scale 0 to 100",60
same,"Plant response rating, Morningglory",[16]; [23],100
same,"Plant response rating, Morningglory",[16]; [24],100
same,"Plant response rating, Pigweed","[17]; Rate 62 g/ha, scale 0 to 100",30
same,"Plant response rating, Pigweed",[17]; [23],80
same,"Plant response rating, Pigweed",[17]; [24],80
same,"Plant response rating, Soybean","soybean (Glycine max); Rate 62 g/ha, scale 0 to 100",70
same,"Plant response rating, Soybean",soybean (Glycine max); [23],90
same,"Plant response rating, Soybean",soybean (Glycine max); [24],90
same,"Plant response rating, Velvetleaf","[18]; Rate 62 g/ha, scale 0 to 100",20
same,"Plant response rating, Velvetleaf",[18]; [23],70
same,"Plant response rating, Velvetleaf",[18]; [24],70
same,"Plant response rating, Velvetleaf",[18]; scale 0 to 100,20
same,"Plant response rating, Cupgrass, Woolly","[19]; Rate 62 g/ha, scale 0 to 100",40
same,"Plant response rating, Cupgrass, Woolly",[19]; [23],70
same,"Plant response rating, Cupgrass, Woolly",[19]; [24],70
same,"Plant response rating, Nutsedge","[20]; Rate 62 g/ha, scale 0 to 100",0
same,"Plant response rating, Nutsedge",[20]; [23],20
